Results as given in publication PMC12124432, “Antimicrobial Peptide‐Peptoid Macrocycles from the Polymyxin B2 Chemical Space” (Angewandte Chemie (International Ed. in English), 2025).
In brackets after ≈: the same amount, converted by molar mass. Bridge positions count the residues as written; N and C are the ends. Square brackets hold non-standard residues; d marks the D form. Peptide text beside a SMILES is read from it. * marks the point of attachment. Propanoyl(3-cPent) = O=C(CCC1CCCC1)*; Gly(N(CH2)3NH2) = NCCCNCC(=O)O; Gly(N-CH2CH2OH) = O=C(O)CNCCO; Nphe = O=C(O)CNCc1ccccc1; Dab = NCC[C@H](N)C(=O)O

Tests used:
[1] = system: E. coli W3110, P. aeruginosa PAO1, S. aureus COL (MRSA), A. baumannii ATCC19606, K. pneumoniae NCTC418; assay: MIC of macrocycles versus their linearized analogs (Table S4 panel); format: cell-based; details: Table S4, 12.5% MH pH 7.4
Experimental: (§1) Minimal Inhibitory Concentration (MIC)
Antimicrobial activity was assayed for all the peptide-peptoids against P. aeruginosa PAO1, K. pneumoniae NCTC418, E. coli W3110, A. baumannii ATCC 19606, methicillin-resistant S. aureus COL (MRSA) and for selected peptides on P. aeruginosa PA14, as well as the clinical isolates ZEM-1A and ZEM9A, K. pneumoniae OXA-48, Enterobacter cloacae, Stenotrophomonas maltophilia and Staphylococus epidermidis. To determine the Minimal Inhibitory Concentration (MIC), Broth Microdilution method was used. A colony of bacteria was picked and grown in LB medium overnight at 37 °C. The next day, the culture was then regrown in LB medium to log phase (OD600 = 0.6 to 0.8), which lasted approximately 4 hours, and diluted to an OD600 of 0.022 in the desired medium (full MH or 12.5% MH). […]
To determine the minimal hemolytic concentration (MHC), stock solutions of 8 mg/mL of the peptide in sterilized MilliQ water deionized were prepared and 50 μL were diluted serially by ½ in 50 μL PBS (pH 7.4) in 96-well plate (Costar or Nunc, polystyrene, untreated). […] Minimal hemolytic concentration (MHC) end points were determined by visual determination of the wells after the incubation period. […]

[2] = Serum stability assay; format: in vitro ADME; details: human serum 12.5% in 0.1 M Tris buffer pH 7.4, 37 °C, 200 µM peptide, time points 0/1/6/10/24 h, triplicates, LC(-MS), 4-hydroxybenzoic acid internal standard
Experimental: Human serum was diluted in 0.1 M filtered TRIS buffer pH 7.4 (25%, 1:3, v/v). Selected hybrids were diluted in 0.1 M filtered TRIS buffer pH 7.4 to a concentration of 400 μM and 0.1 mg/mL of 4-hydroxybenzoic acid was added as internal standard. Aliquots of peptide solution (50 μL) were added to aliquots of serum (50 uL) in sterile Eppendorf tubes, to reach a peptide concentration of 200 μM during the assay. Samples were incubated at 37 °C under gentle stirring (350 rpm). Different samples (triplicates) were quenched at different time points (0 / 1 / 6 / 10 / 24 h) by precipitating serum proteins through the addition of 100 μL of a solution ZnSO4·7 H2O (0.05 mM) in water/ACN (1:1) and cooling in ice bath for 10 minutes.
Protein precipitates were pelleted under centrifugation (5 min at 14’000 rpm) and the supernatants were analysed by LC-MS. Experiment controls included a precipitation control for each peptide to test their resistance to the protein precipitation conditions and serum blanks to check reproducibility over different serum batches. Peaks corresponding to the internal standard and the undegraded peptides were integrated, with the ratio peptide/standard at t = 0 h as 100 % undegraded peptide.
Cell Culture Conditions. […]

[3] = Dansyl-polymyxin (DsPMB) displacement assay; format: binding, Pseudomonas aeruginosa; details: 37 °C, 2.5 µM DsPMB, LPS 3 μg/mL, emission 485 nm; mean ± SD, n = 3
Experimental: 14. Dansyl-Polymyxin (DsPMB) Displacement Assay
Saturation determination. Dansyl-polymyxin (DsPMB) in water (1.5 mg/mL) and lyophilized lipopolysaccharides from P. aeruginosa were obtained from Merck. LPS were prepared as a 1 mg/mL stock solution in mQ water and stored at 4 °C. The fluorescence saturation of DsPMB with LPS was first determined, by titration (0.25 μM increments, up to 5 μM) of the DsPMB into a 3 μg/mL of LPS (10 mM Tris, 10 mM NaCl buffer, pH 7.4), at 37 °C. The fluorescence was recorded with a Jasco spectrofluorometer FP-8300, with the excitation at λex = 340 nm (5 nm slit width) and recorded from 420 to 650 nm. The fluorescence was recorded two minutes after each addition. Saturation was graphically determined, at a concentration of D sPMB ≈ 2.5 μM (λem = 485 nm). Each measurement was determined in triplicates.
Displacement assay. The displacement effect of the various peptides was determined by measuring the reduction of fluorescence intensity, at 37 °C. Initially, DsPMB (2.5 μM) was mixed with LPS (3 μg/mL) and let it react for 15 minutes before recording the fluorescence […]
intensity (at λem = 485 nm and λex = 340 nm). Then, the peptide was titrated (1 μM increments, up to 10 μM) into the DsPMB/LPS mixture, and the fluorescence was recorded two minutes after the compound addition. The decrease in fluorescence was interpreted as the displacement of DsPMB from the LPS due to competitive binding by the peptide.[12,13] Specific Fluorescence Enhancement
Figure S8. Fluorescence emission of dansyl-polymyxin (DsPMB) in presence of lipopolysaccharide (LPS) extracted from P. aeruginosa (3 µg/mL) in TRIS/NaCl buffer (10 mM, pH 7.4). The fluorophore was excited at 340 nm (5 nm slit width) and recorded from 420 to 650 nm. The data represent mean value from three measurement. Specific fluorescence represents the emission of DsPMB with the non-specific fluorescence (no LPS) deduced.

[4] = system: human red blood cells; assay: Minimal hemolytic concentration (MHC); format: cell-based; details: pH 7.4, 25 °C, 4 h
Experimental: (§2) minimal inhibitory concentration (MIC) was defined as the lowest concentration of the compound that inhibits the visible growth of the tested bacteria (yellow) with the unaided eye.
Minimal Hemolytic Concentration (MHC)
To determine the minimal hemolytic concentration (MHC), stock solutions of 8 mg/mL of the peptide in sterilized MilliQ water deionized were prepared and 50 μL were diluted serially by ½ in 50 μL PBS (pH 7.4) in 96-well plate (Costar or Nunc, polystyrene, untreated). Human red blood cells (hRBC) were obtained by centrifugation of 1.5 mL of whole blood, from the blood bank of Bern, at 3000 rpm for 15 minutes at 4 °C. Plasma was discarded and the pellet was re-suspended in a 15 mL Falcon tube in 5 mL of PBS. The washing was repeated three times, and the remaining pellet was re-suspended in 10 mL of PBS at a final hRBC concentration of 5%. The hRBC suspension (50 μL) was added to each well and the plate was incubated at room temperature for 4 hours. Minimal hemolytic concentration (MHC) end points were determined by visual determination of the wells after the incubation period.
Controls on each plate included a blank medium control (50 μL PBS + 50 μL of hRBC suspension) and a hemolytic activity control t-octylphenoxypolyethoxyethanol (Triton-X100) (1 % in MilliQ-deionized water) 50 μL + 50 μL hRBC suspension).
Table S3. […]

[5] = system: E. coli W3110; format: cell-based, Escherichia coli; details: W3110, pH 8.5
Experimental: as §1
(§3) Antimicrobial activity was assayed for all the peptide-peptoids against P. aeruginosa PAO1, K. pneumoniae NCTC418, E. coli W3110, A. baumannii ATCC 19606, methicillin-resistant S. aureus COL (MRSA) and for selected peptides on P. aeruginosa PA14, as well as the clinical isolates ZEM-1A and ZEM9A, K. pneumoniae OXA-48, Enterobacter cloacae, Stenotrophomonas maltophilia and Staphylococus epidermidis. To determine the Minimal Inhibitory Concentration (MIC), Broth Microdilution method was used. A colony of bacteria was picked and grown in LB medium overnight at 37 °C. The next day, the culture was then regrown in LB medium to log phase (OD600 = 0.6 to 0.8), which lasted approximately 4 hours, and diluted to an OD600 of 0.022 in the desired medium (full MH or 12.5% MH).
(§4) The compounds were prepared as stock solutions of 2 mg/mL in sterilized MilliQ deionized water and then diluted in the desired media (full MH or 12.5% MH) to reach the first concentration tested (32 μg/mL). The compounds were added to the first well of a 96-well sterile, round bottom microtiter plates in polystyrene (TPP®, untreated) and diluted serially by ½ in the desired media (full MH or 12.5% MH), to a final volume of 150 µL/well. To each well was finally added 4 µL of the diluted bacterial suspension (see above), corresponding to approximately 5×10^5 CFU. For each test, two columns of the plate were kept for sterility control (medium only), growth control (medium with bacterial inoculum, no compound). The positive control, Polymyxin B (starting with a concentration of 16 µg/mL) in MH medium with bacterial inoculums, was introduced in the two first lines of the plate. The plates were incubated at 37 °C for ca. 18 hours under static conditions. 15 µL of 3-(4,5-dimethylthiazol-2-yl)-2,5-diphenyltetrazolium bromide (MTT)[7] (1 mg/mL in sterilized MilliQ deionized water) were added to each well and the plates were incubated for 20-30 minutes at room temperature. The […]
as §2
(§5) Minimal Hemolytic Concentration (MHC) […]
(§6) 11. Minimal inhibitory in presence of salt
(§7) The same procedure as for the antibacterial activity measurements by minimal inhibitory concentration assay (MIC) was applied. The media, 12.5% Mueller-Hinton broth was this time supplemented with different salt concentrations (0, 100, 200 300 mM NaCl). […]
(§8) All data, in μg/mL, measured against P. aeruginosa PAO1, with or without addition of salt (NaCl). The values were measured in dilute medium (12.5% MH) and at slightly basic pH (pH = 8.5), after incubation for 16-20 h at 37 °C. Values represent two different duplicate MIC determinations.

[6] = system: P. aeruginosa PAO1; format: cell-based, Pseudomonas aeruginosa; details: PAO1, pH 8.5
Experimental: as §1, §3, §4, §2, §5, §6
as §7, with “NaCl). The MIC activities were then determined against Pseudomonas aeruginosa PAO1 and Escherichia coli” for “NaCl).”
Table S6. Minimal inhibitory concentration (MIC) on P. aeruginosa PAO1 as function of salt […]
as §8

FA5-A3-Lys-Asn-Ala-Lys-H2-Lys-C3-Lys [EB12lin, linearized analog of EB12]
Loss of activity of linearized analog relative to macrocyclic parent [1]: between two‐fold and eight‐fold less active

FA10-A3-Lys-C2-Dab(*)-Asn-C2-Lys-Val-Lys-* (lariat or depsi) [EB18, peptide-peptoid macrocycle, PDGA-generated PMB2 analog]
Stability against proteolysis in human serum (undegraded peptide) [2]: did not show any significant degradation in human serum

FA4-Val-C2-A1-Ala-Lys-Gly-Lys-C3-Lys [EB13lin, linearized analog of EB13]
Loss of activity of linearized analog relative to macrocyclic parent [1]: between two‐fold and eight‐fold less active

FA7-H4-C3-A6-Dab(*)-C2-Lys-Ser-Lys-C1-Lys-* (lariat or depsi) [EB33, hemolytic peptide-peptoid macrocycle, PDGA-generated PMB2 analog]
Binding to lipopolysaccharide (dansyl-PMB fluorescence displacement) [3]: an even stronger signal
Hemolysis of red blood cells relative to PMB2 [4]: slightly more hemolytic than PMB2

NCCCC[C@@H]1NC(=O)CN(CCO)C(=O)[C@@H]2CCCN2C(=O)CN(CCCN)C(=O)[C@@H](NC(=O)[C@H](CC(N)=O)NC(=O)[C@H](CCCCN)NC(=O)[C@H](CCCCN)NC(=O)CN(Cc2ccccc2)C(=O)CCC2CCCC2)CCNC1=O [EB32] ({Propanoyl(3-cPent)}-[Nphe]KKN[Dab][Gly(N(CH2)3NH2)]P[Gly(N-CH2CH2OH)]K; lactam 5-C)
MIC on E. coli, 0 mM NaCl [5]: 4 µg/mL (≈ 3.38 µM)
MIC on E. coli, 100 mM NaCl [5]: > 64 µg/mL
MIC on E. coli, 200 mM NaCl [5]: > 64 µg/mL
MIC on E. coli, 300 mM NaCl [5]: > 64 µg/mL
MIC on P. aeruginosa, 0 mM NaCl [6]: 32 µg/mL (≈ 27.1 µM)
MIC on P. aeruginosa, 100 mM NaCl [6]: > 64 µg/mL
MIC on P. aeruginosa, 200 mM NaCl [6]: > 64 µg/mL
MIC on P. aeruginosa, 300 mM NaCl [6]: > 64 µg/mL
